Laboratory results published in ChEMBL document CHEMBL1138655, “Synthesis and biological studies of 1-amino beta-carbolines” (Bioorg Med Chem Lett, 2004).
≈ marks a conversion by molar mass, not a printed value.

What was measured:
[1] = system: Trypanosoma brucei rhodesiense; test: inhibitory concentration against Trypanosoma brucei rhodesiense determined; assay type: functional, organism-based
[2] = system: Leishmania donovani; test: inhibitory concentration against Leishmania donovani was determined; assay type: functional, organism-based
[3] = system: Plasmodium falciparum; test: Inhibitory concentration for Plasmodium falciparum; assay type: functional, organism-based
[4] = system: Trypanosoma cruzi; test: inhibitory concentration against Trypanosoma cruzi was determined; assay type: functional, organism-based
[5] = system: HT-29; test: Concentration required for 50% growth inhibition against human colon HT-29 cell lines; assay type: functional
[6] = system: UACC-62; test: Concentration required for 50% growth inhibition against human melanoma UACC-62 cell lines; assay type: functional
[7] = system: K562; test: Concentration required for 50% growth inhibition against human leukemia K-562 cell lines; assay type: functional
[8] = system: OVCAR-3; test: Concentration required for 50% growth inhibition against human ovarian OVCAR-3 cell lines; assay type: functional
[9] = system: HOP-92; test: Concentration required for 50% growth inhibition against human non small cell lung cancer HOP-92; assay type: functional
[10] = system: M14; test: Concentration required for 50% growth inhibition against human melanoma M14 cell lines; assay type: functional
[11] = system: MDA-MB-231; test: Concentration required for 50% growth inhibition against human breast MDA-MB-231/ATCC cell lines; assay type: functional

IC50 [1]	IC50 [2]	IC50 [3]	IC50 [4]	GI50 [5]	GI50 [7]	GI50 [8]	GI50 [11]	Compound	GI50 [6]	GI50 [9]	GI50 [10]
0.63 µg/mL (≈ 1.95 µM)	> 90 µg/mL	0.41 µg/mL (≈ 1.27 µM)	5.8 µg/mL (≈ 17.9 µM)	–	–	–	–	CCN(CC)N1CCN(c2[nH]ccc3c4ccccc4nc2-3)CC1	–	–	–
0.13 µg/mL (≈ 0.517 µM)	> 90 µg/mL	1.2 µg/mL (≈ 4.77 µM)	> 30 µg/mL	–	–	–	–	c1ccc2c(c1)[nH]c1c(N3CCCCC3)nccc12	–	–	–
1.8 µg/mL (≈ 7.92 µM)	> 90 µg/mL	2.4 µg/mL (≈ 10.6 µM)	4.25 µg/mL (≈ 18.7 µM)	–	–	–	–	OCCNc1[nH]ccc2c3ccccc3nc1-2	–	–	–
0.61 µg/mL (≈ 1.75 µM)	> 90 µg/mL	0.35 µg/mL (≈ 1 µM)	6.5 µg/mL (≈ 18.6 µM)	–	–	–	–	c1ccc2c3cc[nH]c(N4CCN(N5CCCCCC5)CC4)c-3nc2c1	–	–	–
1.8 µg/mL (≈ 5.37 µM)	> 90 µg/mL	0.39 µg/mL (≈ 1.16 µM)	2.35 µg/mL (≈ 7.01 µM)	–	–	–	–	c1ccc2c3cc[nH]c(N4CCN(N5CCCCC5)CC4)c-3nc2c1	–	–	–
0.52 µg/mL (≈ 1.62 µM)	> 90 µg/mL	0.45 µg/mL (≈ 1.4 µM)	6.1 µg/mL (≈ 19 µM)	–	–	–	–	c1ccc2c3cc[nH]c(N4CCN(N5CCCC5)CC4)c-3nc2c1	–	–	–
8.9 µg/mL (≈ 33.3 µM)	> 90 µg/mL	3.4 µg/mL (≈ 12.7 µM)	19.3 µg/mL (≈ 72.4 µM)	–	–	–	–	OC1CCCN(c2[nH]ccc3c4ccccc4nc2-3)C1 (configuration not stated)	–	–	–

Second part, the molecule before the results:

Compound	IC50 [1]	IC50 [2]	IC50 [3]	IC50 [4]	GI50 [5]	GI50 [7]	GI50 [8]	GI50 [11]	GI50 [6]	GI50 [9]	GI50 [10]
c1ccc2c(c1)[nH]c1c(N3CCOCC3)nccc12	18.2 µg/mL (≈ 71.9 µM)	> 90 µg/mL	4.59 µg/mL (≈ 18.1 µM)	25.1 µg/mL (≈ 99.1 µM)	–	–	–	–	–	–	–
CCN(CC)CCCC(C)Nc1nccc2c1[nH]c1ccccc12 (configuration not stated)	0.13 µg/mL (≈ 0.401 µM)	> 90 µg/mL	0.42 µg/mL (≈ 1.29 µM)	3 µg/mL (≈ 9.25 µM)	22.9 µM	12.2 µM	22.8 µM	–	24 µM	4.5 µM	16.4 µM
CN(C)CCCNc1nccc2c1[nH]c1ccccc12	28.1 µg/mL (≈ 105 µM)	> 90 µg/mL	0.45 µg/mL (≈ 1.68 µM)	4.2 µg/mL (≈ 15.7 µM)	–	–	–	–	–	–	–
CCN(CC)CCCNc1nccc2c1[nH]c1ccccc12	0.18 µg/mL (≈ 0.607 µM)	> 90 µg/mL	0.64 µg/mL (≈ 2.16 µM)	1.62 µg/mL (≈ 5.47 µM)	2.7 µM	3.2 µM	1.6 µM	5.2 µM	2.3 µM	0.38 µM	2 µM
CN1CCN(c2nccc3c2[nH]c2ccccc23)CC1	0.63 µg/mL (≈ 2.37 µM)	> 90 µg/mL	0.62 µg/mL (≈ 2.33 µM)	4.3 µg/mL (≈ 16.1 µM)	–	22.5 µM	19.9 µM	3.9 µM	17.8 µM	18.6 µM	14.9 µM
